According to patent publication US7332476B2, “Pyridyl substituted ketolide antibiotics” (Novartis AG, priority 2003, dated 2008):
Converted amounts (≈) assume the structure as drawn.

How the values were obtained:
Assay in all cases: MIC, broth microdilution (NCCLS)
[1] = system: Streptococcus pneumoniae Stpn_Mef 5654; type: cell-based; settings: Table 5, Strain ID J (Table 4): S. pneumoniae Stpn_Mef 5654; in µg/mL (unit assumed)
Outline: (§1)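 Broth microdilution per NCCLS in cation-adjusted Mueller-Hinton broth, with 2-5% lysed horse blood added for S. pneumoniae. Inoculum 3×10^5–7×10^5 CFU/ml, 2-fold drug dilutions, 18-24 h at 35° C; S. pneumoniae under 5-10% CO2, others ambient air. MIC = lowest concentration preventing visible growth.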

[2] = system: Streptococcus pneumoniae Stpn_280-962; type: cell-based; settings: Table 5, Strain ID G (Table 4): S. pneumoniae Stpn_280-962 Pen S
Outline: as §1

E. coli Esco_25922 = type: cell-based; settings: Table 5, Strain ID M (Table 4): E. coli Esco_25922; unit assumed
Procedure: Strains. The bacterial isolates listed in Table 4 were cultivated from −70° C. frozen stocks by two consecutive overnight passages (P1, P2) at 35° C. on 5% blood agar (Remel, Lenexa, Kans.). Chocolate agar (Remel) is used for Haemophilus influenzae. H. influenzae and Streptococcus pneumoniae are incubated in 5-10% CO2
Drug Stock Preparation. To determine the amount of solvent to be used to give the desired final concentration, the formula “weight obtained in mg/final concentration in mg/ml” will be used. It will give the amount of solvent in ml needed to be added to give the desired concentration. For example, if 2.5 mg/ml is the desired concentration and the weight of compound is 13.7 mg, then the amount of solvent to be added is […]. Methanol is used as the solvent to dissolve the test compounds. Further dilution of stock is done in sterile, deionized water. Drug stocks are kept frozen at −70° C., protected from light.
Susceptibility Testing. MICs are determined by the broth microdilution method in accordance with the NCCLS guidelines. In brief, organism suspensions are adjusted to a 0.5 McFarland standard to yield a final inoculum between 3×10^5 and 7×10^5 CFU/ml. Drug dilutions and inocula are made in sterile, cation adjusted Mueller-Hinton Broth (CAMHB) (Remel) for all but S. pneumoniae [CAMHB with 2-5% lysed horse blood (Remel)] and H. influenzae [Haemophilus Test Medium (Remel)]. An inoculum volume of 100 μl is added to wells containing 100 μl of broth with 2-fold serial dilutions of drug. All inoculated microdilution trays are incubated in ambient air at 35° C. for 18-24 hours, except for S. pneumoniae, and H. influenzae (both at 5-10% CO2).
Following appropriate incubation, the MIC is determined and the MIC is defined as the lowest concentration of the drug that prevented visible growth.

[3] = system: Streptococcus pneumoniae Stpn_49619; type: cell-based; settings: Table 5, Strain ID E (Table 4): S. pneumoniae Stpn_49619
Outline: as §1

[4] = system: Streptococcus pneumoniae Stpn_297-749; type: cell-based; settings: Table 5, Strain ID F (Table 4): S. pneumoniae Stpn_297-749 Pen R
Outline: as §1

[5] = system: S. pneumoniae Stpn_Erm 6849; type: cell-based, Streptococcus pneumoniae; settings: Table 5, Strain ID H (Table 4): S. pneumoniae Stpn_Erm 6849; unit assumed
Outline: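 Lowest drug concentration giving no visible growth after 18-24 hours at 35° C. under 5-10% CO2 was taken as MIC. Twofold serial dilutions in CAMHB plus 2-5% lysed horse blood, final inoculum 3×10^5–7×10^5 CFU/ml, per NCCLS microdilution.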

[6] = system: Staphylococcus epidermidis Step_14990; type: cell-based; settings: Table 5, Strain ID A (Table 4): S. epidermidis Step_14990; in µg/mL (unit assumed)
Outline: as §1

[7] = system: Streptococcus pneumoniae Stpn_Erm S 4297; type: cell-based; settings: Table 5, Strain ID I (Table 4): S. pneumoniae Stpn_Erm S 4297; unit assumed
Outline: as §1

[8] = system: Enterococcus faecalis Enfa_29212; type: cell-based; settings: Table 5, Strain ID C (Table 4): E. faecalis Enfa_29212
Outline: as §1

[9] = system: Haemophilus influenzae Hain_49247; type: cell-based; settings: Table 5, Strain ID L (Table 4): H. influenzae Hain_49247; unit assumed
[10] = system: Staphylococcus epidermidis Step_f50654; type: cell-based; settings: Table 5, Strain ID B (Table 4): S. epidermidis Step_f50654 Pen S; in µg/mL (unit assumed)
Outline: as §1

[11] = system: Streptococcus pneumoniae Stpn_Mef S 3427; type: cell-based; settings: Table 5, Strain ID K (Table 4): S. pneumoniae Stpn_Mef S 3427
Outline: as §1

[12] = system: Streptococcus pyogenes Stpy_8668; type: cell-based; settings: Table 5, Strain ID D (Table 4): S. pyogenes Stpy_8668
Outline: as §1

CC[C@H]1OC(=O)[C@H](C)C(=O)[C@H](C)[C@@H](OC2O[C@H](C)C[C@H](N(C)C)[C@H]2O)[C@@](C)(OC)C[C@@H](C)C2=NCCN3C(=O)O[C@H]1[C@H]3[C@H]2C (some centres unmarked) [Compound 6222] showed an MIC [1] of 0.78, an MIC ([2]; unit assumed) of 0.2 µg/mL (≈ 0.321 µM) and an MIC (E. coli Esco_25922) of 50 µg/mL (≈ 80.2 µM). The MIC ([3]; unit assumed) was 0.2 µg/mL (≈ 0.321 µM), the MIC ([4]; unit assumed) was 0.4 µg/mL (≈ 0.641 µM) and the MIC [5] was > 50 µg/mL. For the same compound, the MIC [6] was 1.56, the MIC [7] was > 50 µg/mL and the MIC ([8]; in µg/mL (unit assumed)) was 0.4. The MIC [9] was 25 µg/mL (≈ 40.1 µM), the MIC [10] was 1.56 and the MIC ([11]; in µg/mL (unit assumed)) was 0.4. It also gave an MIC ([12]; unit assumed) of 0.2 µg/mL (≈ 0.321 µM).
For CC[C@H]1OC(=O)[C@H](C)C(=O)[C@H](C)[C@@H](OC2O[C@H](C)C[C@H](N(C)C)[C@H]2O)[C@@](C)(OC)C[C@@H](C)C(=O)[C@H](C)[C@@H]2[C@@H]1OC(=O)N2CCCCc1ccnc2ccccc12 (some centres unmarked) [Compound 4711], the MIC [1] was 0.1, the MIC [2] was “=0.5” and the MIC (E. coli Esco_25922) was 50 µg/mL (≈ 63.9 µM). For the same compound, the MIC [3] was “=0.5”, the MIC [4] was “=0.5” and the MIC [5] was 6.25 µg/mL (≈ 7.99 µM). The MIC [6] was 0.1, the MIC [7] was 0.2 µg/mL (≈ 0.256 µM) and the MIC [8] was “=0.05”. For the same compound, the MIC [9] was 1.56 µg/mL (≈ 1.99 µM), the MIC [10] was 0.1 and the MIC [11] was “=0.5”. For the same compound, the MIC [12] was “=0.5”.
